Laboratory results: ChEMBL document CHEMBL3885861, “Open TG-GATES”

Organism: Rattus norvegicus
Assay: Open TG-GATES - Regimen: Single
Assay type: toxicity, organism-based, Sprague-Dawley
Design: regimen Single, gender Male, age 6 weeks
Details: in vivo, po, 0 mg/kg, route gavage, dose level Control; for APTT / Bas / Eos / Fbg / Hb / Ht / Lym / MCH / MCHC / MCV / Mono / Neu / PT / Plat / RBC / Ret / WBC: tissue Blood; for ALP / ALT / AST / BUN / CRE / DBIL / GLC / IP / K / Na / PL / RALB / TBIL / TC / TG / TP / gamma-GTP: tissue Plasma

For `NS(=O)(=O)c1cc(C(=O)O)c(NCc2ccco2)cc1Cl` [FUROSEMIDE], the TERMINAL_BW (3 h) was 205.5 g, the APTT (3 h) was 15.8 s and the Bas (3 h) was 0%. It also gave an Eos (3 h) of 0.8%, a Fbg (3 h) of 270 mg/dL and a Hb (3 h) of 13.2 g/dL. For the same molecule, the Ht (3 h) was 39.9%, the Lym (3 h) was 78.2% and the MCH (3 h) was 21.5 pg. The MCHC (3 h) was 33.2%, the MCV (3 h) was 64.8 fL and the Mono (3 h) was 2.8%. The Neu (3 h) was 17.2%, the PT (3 h) was 15.6 s and the Plat (3 h) was 115.8 x10_4/uL. It also gave an RBC (3 h) of 615.6 x10_4/ul, a Ret (3 h) of 7.3% and a WBC (3 h) of 70.5 x10_2/uL. It also gave an ALP (3 h) of 1448.8 IU/L, an ALT (3 h) of 40.4 IU/L and an AST (3 h) of 76.2 IU/L. For the same molecule, the BUN (3 h) was 10.2 mg/dL, the CRE (3 h) was 0.2 mg/dL and the DBIL (3 h) was 0.01 mg/dL. It also gave a GLC (3 h) of 172.8 mg/dL, an IP (3 h) of 9 mg/dL and a K (3 h) of 4 meq/L. For the same molecule, the Na (3 h) was 142.4 meq/L, the PL (3 h) was 137.6 mg/dL and the RALB (3 h) was 2.5 g/dL. It also gave a TBIL (3 h) of 0.058 mg/dL, a TC (3 h) of 72.2 mg/dL and a TG (3 h) of 61.6 mg/dL. For the same molecule, the TP (3 h) was 5.4 g/dL, the gamma-GTP (3 h) was 0.6 IU/L and the TERMINAL_BW (6 h) was 207.5 g. The APTT (6 h) was 16.5 s, the Bas (6 h) was 0% and the Eos (6 h) was 1.2%. The Fbg (6 h) was 313.6 mg/dL, the Hb (6 h) was 13.1 g/dL and the Ht (6 h) was 39.4%. For the same molecule, the Lym (6 h) was 75.8%, the MCH (6 h) was 21.2 pg and the MCHC (6 h) was 33.1%. It also gave an MCV (6 h) of 63.9 fL, a Mono (6 h) of 2.8% and a Neu (6 h) of 19.4%. For the same molecule, the PT (6 h) was 15.3 s, the Plat (6 h) was 122.5 x10_4/uL and the RBC (6 h) was 617.2 x10_4/ul. For the same molecule, the Ret (6 h) was 8%, the WBC (6 h) was 72.8 x10_2/uL and the ALP (6 h) was 1332.6 IU/L. The ALT (6 h) was 39 IU/L, the AST (6 h) was 70.6 IU/L and the BUN (6 h) was 11 mg/dL. The CRE (6 h) was 0.2 mg/dL, the DBIL (6 h) was 0.012 mg/dL and the GLC (6 h) was 173.8 mg/dL. The IP (6 h) was 9.7 mg/dL, the K (6 h) was 3.9 meq/L and the Na (6 h) was 142.2 meq/L. It also gave a PL (6 h) of 143.2 mg/dL, an RALB (6 h) of 2.6 g/dL and a TBIL (6 h) of 0.062 mg/dL. The TC (6 h) was 80.4 mg/dL, the TG (6 h) was 48.8 mg/dL and the TP (6 h) was 5.5 g/dL. For the same molecule, the gamma-GTP (6 h) was 0.8 IU/L, the TERMINAL_BW (9 h) was 206.6 g and the APTT (9 h) was 19.4 s. For the same molecule, the Bas (9 h) was 0%, the Eos (9 h) was 0.8% and the Fbg (9 h) was 294.4 mg/dL. It also gave a Hb (9 h) of 13 g/dL, a Ht (9 h) of 39% and a Lym (9 h) of 79.6%. The MCH (9 h) was 20.7 pg, the MCHC (9 h) was 33.2% and the MCV (9 h) was 62.4 fL. The Mono (9 h) was 2.2%, the Neu (9 h) was 17% and the PT (9 h) was 15.3 s. It also gave a Plat (9 h) of 108.3 x10_4/uL, an RBC (9 h) of 625.6 x10_4/ul and a Ret (9 h) of 7.8%. For the same molecule, the WBC (9 h) was 70.5 x10_2/uL, the ALP (9 h) was 1206 IU/L and the ALT (9 h) was 40.8 IU/L. For the same molecule, the AST (9 h) was 68.2 IU/L, the BUN (9 h) was 9 mg/dL and the CRE (9 h) was 0.2 mg/dL. The DBIL (9 h) was 0.01 mg/dL, the GLC (9 h) was 182.8 mg/dL and the IP (9 h) was 10.2 mg/dL. It also gave a K (9 h) of 4 meq/L, a Na (9 h) of 144.2 meq/L and a PL (9 h) of 142 mg/dL. It also gave an RALB (9 h) of 2.6 g/dL, a TBIL (9 h) of 0.066 mg/dL and a TC (9 h) of 79 mg/dL. For the same molecule, the TG (9 h) was 35.8 mg/dL, the TP (9 h) was 5.6 g/dL and the gamma-GTP (9 h) was 0.8 IU/L. It also gave a TERMINAL_BW (24 h) of 222.4 g, an APTT (24 h) of 16.2 s and a Bas (24 h) of 0%. It also gave an Eos (24 h) of 1%, a Fbg (24 h) of 270.8 mg/dL and a Hb (24 h) of 13.1 g/dL. The Ht (24 h) was 39.3%, the Lym (24 h) was 74.2% and the MCH (24 h) was 21.3 pg. The MCHC (24 h) was 33.3%, the MCV (24 h) was 64.1 fL and the Mono (24 h) was 3.2%. The Neu (24 h) was 20.6%, the PT (24 h) was 15.9 s and the Plat (24 h) was 116.4 x10_4/uL. For the same molecule, the RBC (24 h) was 613.6 x10_4/ul, the Ret (24 h) was 7.6% and the WBC (24 h) was 104.1 x10_2/uL. It also gave an ALP (24 h) of 1714.2 IU/L, an ALT (24 h) of 47.4 IU/L and an AST (24 h) of 73.4 IU/L. The BUN (24 h) was 15.4 mg/dL, the CRE (24 h) was 0.2 mg/dL and the DBIL (24 h) was 0.014 mg/dL. The GLC (24 h) was 182.4 mg/dL, the IP (24 h) was 8.4 mg/dL and the K (24 h) was 4.2 meq/L. For the same molecule, the Na (24 h) was 141.6 meq/L, the PL (24 h) was 156 mg/dL and the RALB (24 h) was 2.6 g/dL. The TBIL (24 h) was 0.052 mg/dL, the TC (24 h) was 81.6 mg/dL and the TG (24 h) was 72.8 mg/dL. The TP (24 h) was 5.7 g/dL and the gamma-GTP (24 h) was 0.8 IU/L.
